Reference: patent US9987216B2, “Plant fat composition for cosmetic preparation” (priority 2016, dated 2018)

Key:
[1] = Journal of the American College of Toxicology Vol. 6, No. 3, 1987; cited from earlier work
[2] = system: skin on the inner side of the upper arm; assay: Skin irritation in the test subjects of the TEWL test; type: in vivo; details: all test subjects (n=6), 100 μl on the skin
Protocol: 100 μl of each product was applied to the skin on the inner side of the upper arm and kept absorbed into the skin for 5 minutes. The transepidermal water loss was then measured at predetermined intervals. In addition, all the test subjects (n=6) had no irritation to both the plant fat composition of the present invention and the plant-derived squalane.

[3] = DPPH radical scavenging (antioxidative effect); details: concentration of 10%; 30 minutes in the dark, absorbance 540 nm
Protocol: DPPH (2,2-diphenyl-1-picryl-hydrazyl) is a purple-colored stable free radical substance that receives hydrogens from an antioxidant to undergo decolorization. Upon exposure to an antioxidant, the DPPH acts as a […] the antioxidant and becomes removed of free radicals, resulting in decolorization, which makes it possible to evaluate the radical-scavenging activity.
Vitamin E (acetate) was used as a control.
(a) Prepare a 0.2 mM DPPH reagent dissolved in n-hexane.
(b) Prepare test samples by concentration.
(c) Add 100 μl of the reagent and 100 μl of each sample in four wells of a 96-well test plate.
(d) Add 100 μl of the reagent and 100 μl of a solvent in four wells to remove the blank value.
(e) Kept in the dark for 30 minutes at the room temperature.
(f) Measure the absorbance at 540 nm with an ELISA reader (TECAN microplate reader).
Analysis Method (Calculation Method) DPPH radical scavenging ability (%)=[1−(absorbance of sample/absorbance of blank)]×100

Row | Compound | safety in use for cosmetic formulations [1] | further results
1 | CCCCCCCCCCCC(=O)O [lauric acid] | safe | 
2 | CCCCCCCCCCCCCC(=O)O [myristic acid] | safe | 
3 | CCCCCCCC/C=C\CCCCCCCC(=O)O [oleic acid] | safe | 
4 | CCCCCCCCCCCCCCCC(=O)O [palmitic acid] | safe | 
5 | CC(C)CCCC(C)CCCC(C)CCCCC(C)CCCC(C)CCCC(C)C (stereo not shown) [plant-derived squalane, squalane] |  | skin irritation [2]: no irritation
6 | CCCCCCCCCCCCCCCCCC(=O)O [stearic acid] | safe | 
7 | CC(=O)Oc1c(C)c(C)c2c(c1C)CCC(C)(CCC[C@H](C)CCC[C@H](C)CCCC(C)C)O2 (stereo partly shown) [vitamin E, Vitamin E (acetate)] |  | DPPH radical scavenging activity [3]: 5%
